{"source": "ChEMBL document CHEMBL4145614", "about": "“Cyclopeptides from the Sponge Stylissa flabelliformis” (J Nat Prod, 2018)", "key": {"[1]": {"tested_on": "A549", "description": "Cytotoxicity against human A549 cells after 72 hrs by sulforhodamine B assay"}, "[2]": {"tested_on": "SK-HEP1", "assay": "Cytotoxicity against human SKHEP1 cells after 72 hrs by sulforhodamine B assay", "type": "functional, cell-based", "conditions": "sk-hep1"}, "[3]": {"tested_on": "MDA-MB-231", "assay": "Cytotoxicity against human MDA-MB-231 cells after 72 hrs by sulforhodamine B assay", "type": "functional, cell-based"}, "[4]": {"tested_on": "HCT-116", "assay": "Cytotoxicity against human HCT116 cells after 72 hrs by sulforhodamine B assay", "type": "functional, cell-based", "conditions": "hct-116"}, "[5]": {"tested_on": "K562", "assay": "Cytotoxicity against human K562 cells after 72 hrs by sulforhodamine B assay", "type": "functional, cell-based", "conditions": "k562"}, "[6]": {"tested_on": "SNU-638", "assay": "Cytotoxicity against human SNU638 cells after 72 hrs by sulforhodamine B assay", "type": "functional, cell-based", "conditions": "snu-638"}, "[7]": {"molecular_target": "Sodium/potassium-transporting ATPase", "assay": "Inhibition of potassium-activated sodium/potassium ATPase in human placenta using 3-O-methylfluorescein phosphate as substrate measured for 90 secs by fluorescence assay"}, "[8]": {"tested_on": "Aspergillus fumigatus", "assay": "Antifungal activity against Aspergillus fumigatus HIC 6094 measured after 48 to 72 hrs", "type": "functional"}, "[9]": {"tested_on": "Trichophyton mentagrophytes", "assay": "Antifungal activity against Trichophyton mentagrophytes IFO 40996 measured after 48 to 72 hrs", "type": "functional"}, "[10]": {"assay": "Inhibition of recombinant bacterial sortase A using Dabcyl-QALPETGEE-Edans as substrate measured after 1 hr by fluorescence assay", "design": "species or system Bacteria"}, "[11]": {"tested_on": "Proteus vulgaris", "assay": "Antibacterial activity against Proteus vulgaris ATCC 3851 measured after 24 hrs", "type": "functional", "conditions": "ATCC 3851, 24 h"}, "[12]": {"tested_on": "Staphylococcus aureus", "assay": "Antibacterial activity against Staphylococcus aureus ATCC 6538P measured after 24 hrs", "type": "functional"}, "[13]": {"tested_on": "Trichophyton rubrum", "assay": "Antifungal activity against Trichophyton rubrum IFO 9185 measured after 48 to 72 hrs", "type": "functional"}, "[14]": {"tested_on": "Bacillus spizizenii", "assay": "Antibacterial activity against Bacillus subtilis ATCC 6633 measured after 24 hrs", "type": "functional", "conditions": "ATCC 6633, 24 h"}, "[15]": {"tested_on": "Micrococcus luteus", "assay": "Antibacterial activity against Micrococcus luteus IFC 12708 measured after 24 hrs", "type": "functional", "conditions": "IFC 12708, 24 h"}, "[16]": {"tested_on": "Candida albicans", "assay": "Antifungal activity against Candida albicans ATCC 10231 measured after 48 to 72 hrs", "type": "functional"}, "[17]": {"tested_on": "Salmonella typhimurium", "assay": "Antibacterial activity against Salmonella typhimurium ATCC 14028 measured after 24 hrs", "type": "functional, Salmonella enterica subsp. enterica serovar Typhimurium", "conditions": "Salmonella enterica, ATCC 14028, 24 h"}, "[18]": {"tested_on": "Escherichia coli", "assay": "Antibacterial activity against Escherichia coli ATCC 25922 measured after 24 hrs", "type": "functional", "conditions": "ATCC 25922, 24 h"}}}
{"smiles": "CC[C@H](C)[C@@H]1NC(=O)[C@H](Cc2ccc(O)cc2)NC(=O)[C@@H]2CCCN2C(=O)[C@@H]2CCCN2C(=O)[C@H](CC(C)C)NC(=O)[C@H](CCC(=O)O)NC(=O)[C@H](Cc2ccccc2)NC(=O)[C@H](CC[S+](C)[O-])NC(=O)[C@@H]2CCCN2C(=O)[C@@H]2CCCN2C1=O", "note": "(single isomer, unassigned; epimer 2)", "values": [{"measurement": "IC50", "setting": "[1]", "value": 23, "unit": "nM"}, {"measurement": "IC50", "setting": "[2]", "value": 14, "unit": "nM"}, {"measurement": "IC50", "setting": "[3]; Homo sapiens, MDA-MB-231, 72 h", "value": 350, "unit": "nM"}, {"measurement": "IC50", "setting": "[4]", "value": 11, "unit": "nM"}, {"measurement": "IC50", "setting": "[5]", "value": 21, "unit": "nM"}, {"measurement": "IC50", "setting": "[6]", "value": 10, "unit": "nM"}]}
{"smiles": "CC[C@H](C)[C@@H]1NC(=O)[C@H](Cc2ccc(O)cc2)NC(=O)[C@@H]2CCCN2C(=O)[C@@H]2CCCN2C(=O)[C@H](CC(C)C)NC(=O)[C@H](CCC(=O)O)NC(=O)[C@H](Cc2ccccc2)NC(=O)[C@H](CC[S+](C)[O-])NC(=O)[C@@H]2CCCN2C(=O)[C@@H]2CCCN2C1=O", "note": "(single isomer, unassigned; Epimer-1)", "values": [{"measurement": "IC50", "setting": "[7]", "value": "> 100000", "unit": "nM"}, {"measurement": "MIC", "setting": "[8]", "value": "> 128", "unit": "µM"}, {"measurement": "IC50", "setting": "[1]", "value": 190, "unit": "nM"}, {"measurement": "IC50", "setting": "[2]", "value": 41, "unit": "nM"}, {"measurement": "IC50", "setting": "[3]; mda-mb-231", "value": 400, "unit": "nM"}, {"measurement": "IC50", "setting": "[4]", "value": 140, "unit": "nM"}, {"measurement": "MIC", "setting": "[9]", "value": "> 128", "unit": "µM"}, {"measurement": "IC50", "setting": "[10]", "value": "> 100000", "unit": "nM"}, {"measurement": "IC50", "setting": "[5]", "value": 170, "unit": "nM"}, {"measurement": "MIC", "setting": "[11]", "value": "> 128", "unit": "µM"}, {"measurement": "MIC", "setting": "[12]", "value": "> 128", "unit": "µM"}, {"measurement": "MIC", "setting": "[13]", "value": "> 128", "unit": "µM"}, {"measurement": "MIC", "setting": "[14]", "value": "> 128", "unit": "µM"}, {"measurement": "MIC", "setting": "[15]", "value": "> 128", "unit": "µM"}, {"measurement": "MIC", "setting": "[16]", "value": "> 128", "unit": "µM"}, {"measurement": "MIC", "setting": "[17]", "value": "> 128", "unit": "µM"}, {"measurement": "MIC", "setting": "[18]", "value": "> 128", "unit": "µM"}, {"measurement": "IC50", "setting": "[6]", "value": 160, "unit": "nM"}]}
